Measurements from patent publication US20120100361A1, “ANTISEPTIC COMPOSITION FOR ENGINEERING WOOD PRODUCTION, AND ENGINEERING WOOD” (SDS BIOTECH K.K., priority 2009, published 2012).

What was measured:
[1] = Test for miscibility with a phenol resin glue; type: physicochemical; set-up: key to Phenol resin status after 60 minutes: ∘: No change; x: Obvious increase in the viscosity was seen and it seems impossible to apply the composition onto the veneer sheet; conditions: for Phenol resin status after 60 minutes: 10% (w/w) solution added to phenol resin glue Deernol D-117 kneaded product, viscosity change visually observed for 60 minutes; for compatibility with phenol resin glue (in words): summary of Table 1
Experimental: The following compounds, which are known to have wood preservative activity, are dissolved in methyl ethylene triglycol to reach a concentration of 10% (w/w) to thereby obtain a solution of each of the compounds.
1000 g of phenol resin-based glue Deernol D-117 (manufactured by Oshika Corporation), 70 g of wheat flour and 100 g of calcium carbonate were mixed and well kneaded. Each of the solutions of Example 1 and Comparative Example 1 to 25 was added to 17 g of the kneaded product and mixed well together. The viscosity change of the glue was visually observed for 60 minutes. […] Although a number of documents listed as the prior art documents and the like teach that quaternary ammonium compounds can be applied to the glue line treatment, it is clear that those compounds have a problem for practical use (Comparative Examples 3 and 4). On the other hand, it was confirmed that the other compounds including that of Example has no problem from the viewpoint of compatibility.

Trametes versicolor = assay: Test for antiseptic effects of preservative plywood (JIS K1571:2004); type: cell-based; conditions: glue line method; summary of Tables 2 and 3
Experimental: 1000 g of urea melamine resin (PWP-60, manufactured by Oshika Corporation) was added to 180 g of wheat flour and fully kneaded to thereby obtain a kneaded product. 8 g of ammonium chloride was added as a hardening agent to the kneaded product, and a solution of each of the compounds of Example 1 and Comparative Example 1, 2 and 5 to 25 was further added thereto so that the final concentrations of the compound in the wood become 150, 100, 50 and 25 g/m^3 and kneaded. 18 g of the above kneaded product was applied onto each of the bonding plane of the three red lauan veneer sheets having an area of 30 x 30 cm and thickness of 0.85 mm/2.4 mm/0.85 mm. After bonding the three sheets to each other, the sheets were subjected to cold pressing at room temperature for 20 minutes and the thermal pressure of 120° C. (10 kgf/cm^2) was applied to the sheets for two minutes to obtain the target plywood. Each of the prepared plywood was processed into the size of 20×20×4.1 mm to serve as a test sample.
The samples of the plywood and LVL prepared in Preparation Examples 2 and 3 were evaluated by the test for antiseptic effects for the drug pressure treatment according to JIS K1571:2004. The weather resistance operation and the test method for the antiseptic effect were performed according to the above test method.

Compound | Phenol resin status after 60 minutes [1] | amount showing the antiseptic effect on Trametes versicolor (Trametes versicolor) [g/m^3] | compatibility with phenol resin glue (in words) [1]
C[Si](C)(C)CC(O)(Cn1cncn1)c1ccc(F)cc1 (centres unmarked) [Comparative Example 8, simeconazole] | ∘ |  | 
CC1(C)CCC(Cc2ccc(Cl)cc2)C1(O)Cn1cncn1 (centres unmarked) [Comparative Example 14, metconazole] | ∘ |  | 
C[Si](C)(C)CC(O)(Cn1cncn1)c1ccc(F)cc1F (centres unmarked) [Comparative Example 2, 2-(2,4-difluorophenyl)-1-(1H-1,2,4-triazole-1-yl)-3-(trimethylsilyl)propane-2-ol] | ∘ | ≥ 100 | 
N#Cc1c(Cl)c(Cl)c(Cl)c(C#N)c1Cl [Comparative Example 25, chlorothalonil] | ∘ |  | 
CCCCCCCCCC[N+](C)(C)CCCCCCCCCC.[Cl-] [Comparative Example 4, didecyldimethylammonium chloride] | x |  | harden the glue
N#CC(CCc1ccc(Cl)cc1)(Cn1cncn1)c1ccccc1 (centres unmarked) [Comparative Example 9, fenbuconazole] | ∘ |  | 
benzalkonium chloride [Comparative Example 3] | x |  | harden the glue
CC(C1CC1)C(O)(Cn1cncn1)c1ccc(Cl)cc1 (centres unmarked) [Comparative Example 5, cyproconazole] | ∘ |  | 
Clc1ccc(CSC(Cn2cncn2)=Nc2ccc(Cl)cc2Cl)cc1 [Comparative Example 12, imibenconazole] | ∘ |  | 
FC(F)C(F)(F)OCC(Cn1cncn1)c1ccc(Cl)cc1Cl (centres unmarked) [Comparative Example 18, tetraconazole] | ∘ |  | 
CC(C)(C)C(O)(CCc1ccc(Cl)cc1)Cn1cncn1 (centres unmarked) [Comparative Example 6, tebuconazole] | ∘ |  | 
COC(=O)N(OC)c1ccccc1COc1ccn(-c2ccc(Cl)cc2)n1 [Comparative Example 22, pyraclostrobin] | ∘ |  | 
CCCCC(C#N)(Cn1cncn1)c1ccc(Cl)cc1 (centres unmarked) [Comparative Example 15, myclobutanil] | ∘ |  | 
OC(Cn1cncn1)(c1ccc(F)cc1)c1ccccc1F (centres unmarked) [Comparative Example 11, flutriafol] | ∘ |  | 
CCCC1COC(Cn2cncn2)(c2ccc(Cl)cc2Cl)O1 (centres unmarked) [Comparative Example 17, propiconazole] | ∘ |  | 
CC(C)C1CCC(Cc2ccc(Cl)cc2)C1(O)Cn1cncn1 (centres unmarked) [Comparative Example 13, ipconazole] | ∘ |  | 
CCCCC(O)(Cn1cncn1)c1ccc(Cl)cc1Cl (centres unmarked) [Comparative Example 1, hexaconazole] | ∘ | ≥ 50 | 
CC(C)(C)C(=O)C(Oc1ccc(Cl)cc1)n1cncn1 (centres unmarked) [Comparative Example 19, triadimefon] | ∘ |  | 
CC1(C)CCC(=Cc2ccc(Cl)cc2)C1(O)Cn1cncn1 (centres unmarked) [Comparative Example 20, triticonazole] | ∘ |  | 
C[Si](Cn1cncn1)(c1ccc(F)cc1)c1ccc(F)cc1 [Comparative Example 10, flusilazole] | ∘ |  | 
Clc1ccc(C2(Cn3cncn3)OCCO2)c(Cl)c1 [Comparative Example 7, azaconazole] | ∘ |  | 
CCCC(Cn1cncn1)c1ccc(Cl)cc1Cl (centres unmarked) [Comparative Example 16, penconazole] | ∘ |  | 
